Test results: patent US20030194719A1, “Tpst-assay for diagnosis of autism and related disorders” (priority 2000, published 2003)

Experiments:
[1] = test system: Tyrosyl protein sulphotransferase (TPST); assay: TPST activity assay in platelets from normal healthy blood donors (35S transfer from PAPS35 to EAY substrate); type: biochemical, human; conditions: for TPST activity (0 μM = 100): Table 7; for TPST activity (0 μM = 100.0): Table 5
Experimental: The activity of sulphotransferases can be measured by monitoring the transfer of ^35S from the sulphate donor, PAPS^35, to the product, in this case the synthetic tyrosine substrate EAY. This assay uses platelets from control subjects (n=5) and those patients suffering from a particular disorder, selected from autism (n=14), irritable bowel syndrome (n=3) schizophrenia (gluten-sensitive)(n=4), food allergy (gluten, milk) (n=3) and depression (n=2).
Reaction mixtures were incubated for 50 minutes at 37° C. and reactions were stopped by barium acetate. Unreacted sulphate, proteins and nucleotides were precipitated by zinc sulphate and barium hydroxide. Within the reaction there is a positive and negative control. The positive control is termed 100%, and represents the total amount of radioactivity present in the hot PAPS^35 sample. The negative control is the “no-enzyme” reaction, this represents the amount of sulphate transferred to the product when no enzyme is present, i.e. the chemical reaction. The blank for the reaction is made up without PAPS^35 and without enzyme.
10 ml of whole blood was taken from patients and the blood cells removed. The remaining plasma was centrifuged at 8000 g for 5 mins to sediment the platelets. This platelet pellet was resuspended in 5 ml 10 mM phosphate buffered saline (PBS) containing 10 mM EDTA, recentrifuged at 2000 g at 4° C. for 30 min. […] The platelets were sonicated for 12×10 second bursts at 4° C. The platelet sonicates were stored in 1 ml portions at −70° C. prior to use.
Substrate: 10 μl EAY (300 μM; poly (Glu, Ala, Tyr) 6:3:1) was used in each test assay, to give a final concentration in the reaction of 20 μM. This solution was made up in MES reaction buffer.
Reaction mixtures were made up as in the table above. To begin the assay, platelet homogenate (20 μl) and PAPS^35 (20 μl) were added at 30-second intervals to a final volume of 150 μl. The reaction mixture was then incubated at 37° C. for 40 min. The reaction is stopped by the addition of 200 μl-barium acetate (0.1 M) and the tubes were vortexed and placed on ice for […].
Unreacted sulphate was then precipitated by the addition of 0.1 M zinc sulphate (200 μl) and 0.1 M barium hydroxide (200 μl). The tubes were vortexed and centrifuged at 6500 rpm for 3 min.
Repeat step 3. Supernatant (500 μl) was then added to scintillation fluid (3.5 ml) and S^35 was counted in a Phillips scintillation counter.
Various compounds were investigated, including fatty acids, flavonoids and amino acids. […] Compounds were tested at the concentrations shown and were dissolved in buffer where possible or ethanol if not.
In the Example shown in Table 6 and FIG. 6 compounds were all dissolved in DMSO and tested at 25 μM.

TPST [2] = conditions: human alcoholics; cited from earlier work
TPST [3] = conditions: stomach and liver of ethanol-fed male Sprague-Dawley rats; cited from earlier work
[4] = Table 6, 25 μM, dissolved in DMSO, human platelets
[5] = Table 2, 100 μM, normal human platelets
[6] = Example 2, concentrations as in Table 2, normal human platelets

**Q.** With `O=c1cc(-c2cc(O)c(O)c(O)c2O)oc2cc(O)ccc12` [2′,3′,4′,5′,7 OH Flavone] as the compound, how does the “% Control TPST Activity” value [1, 4] read?
**A.** Its value is 38%.

**Q.** Which results are given for `O=c1c(O)c(-c2ccccc2)oc2ccccc12` [3 OH Flavone]?
**A.** % Control TPST Activity [1, 4]: 96%; TPST activity (0 μM = 100) ([1]; flavonoid 0.5 μM): 79; TPST activity (0 μM = 100) ([1]; flavonoid 1 μM): 92.6; TPST activity (0 μM = 100) ([1]; flavonoid 2.5 μM): 90.7; TPST activity (0 μM = 100) ([1]; flavonoid 5 μM): 83; TPST activity (0 μM = 100) ([1]; flavonoid 10 μM): 97.9; TPST activity (0 μM = 100) ([1]; flavonoid 25 μM): 101.1; TPST activity (0 μM = 100) ([1]; flavonoid 50 μM): 95.5; TPST activity (0 μM = 100) ([1]; flavonoid 100 μM): 94.4

**Q.** Which “% Control TPST Activity” value [1, 4] does the source give for `O=c1cc(-c2ccc(O)c(O)c2)oc2ccccc12` [3′,4′ OH Flavone] here?
**A.** Its value is 55%.

**Q.** For `O=c1c(-c2ccc(O)c(O)c2)coc2cc(O)ccc12` [3′,4′,7 OH Isoflavone], which “% Control TPST Activity” value [1, 4] is on record?
**A.** The value was 17%.

**Q.** Which “% Control TPST Activity” value [1, 4] does the source give for `O=c1cc(-c2cc(O)cc(O)c2)oc2cc(O)ccc12` [3′,5′,7 OH Flavone] here?
**A.** The value was 32%.

**Q.** With `O=c1cc(-c2ccccc2)oc2cccc(O)c12` [5 OH Flavone] as the compound, how does the “% Control TPST Activity” value [1, 4] read?
**A.** Its value is 152%.

**Q.** With `O=c1cc(-c2ccccc2)oc2cc(O)c(O)c(O)c12` [5′,6′,7′ OH Flavone] as the compound, how does the “% Control TPST Activity” value [1, 4] read?
**A.** The value was 1%.

**Q.** Which “% Control TPST Activity” value [1, 4] does the source give for `Oc1cc(O)c2c(c1)O[C@H](c1ccc(O)c(O)c1)[C@@H](O)C2` [(+)-Catechin] here?
**A.** Its value is 74%.

**Q.** Which “% Control TPST Activity” value [1, 4] does the source give for `O=c1cc(-c2ccc(O)cc2)oc2cc(O)cc(O)c12` [Apigenin] here?
**A.** Its value is 31%.

**Q.** For `CCCC(=O)O` [Butyric Acid], which “% Control TPST Activity” value [1, 5] is on record?
**A.** The value was 125%.

**Q.** What about the “TPST activity (0 μM = 100.0)” value ([1]; fatty acid 0.5 μM) of the same compound?
**A.** The value was 137.6.

**Q.** And the “TPST activity (0 μM = 100.0)” value ([1]; fatty acid 1 μM)?
**A.** Its value is 96.8.

**Q.** And the “TPST activity (0 μM = 100.0)” value ([1]; fatty acid 2.5 μM)?
**A.** Its value is 114.3.

**Q.** And the “TPST activity (0 μM = 100.0)” value ([1]; fatty acid 5 μM)?
**A.** Its value is 94.6.

**Q.** What about the “TPST activity (0 μM = 100.0)” value ([1]; fatty acid 10 μM) of the same compound?
**A.** Its value is 99.2.

**Q.** What about the “TPST activity (0 μM = 100.0)” value ([1]; fatty acid 25 μM) of the same compound?
**A.** The value was 76.1.

**Q.** What about the “TPST activity (0 μM = 100.0)” value ([1]; fatty acid 50 μM) of the same compound?
**A.** Its value is 86.4.

**Q.** What about the “TPST activity (0 μM = 100.0)” value ([1]; fatty acid 100 μM) of the same compound?
**A.** Its value is 62.2.

**Q.** Which results are given for `O=C(O)CC(O)(CC(=O)O)C(=O)O` [Citrate]?
**A.** Effect on TPST activity (in words) [1, 6]: increasing activity; % Control TPST Activity [1, 5]: 113%

**Q.** Which results are given for `CC/C=C\C/C=C\C/C=C\C/C=C\C/C=C\C/C=C\CCC(=O)O` [DHA, docosahexanoic acid]?
**A.** TPST activity (0 μM = 100.0) ([1]; fatty acid 0.5 μM): 91.8; TPST activity (0 μM = 100.0) ([1]; fatty acid 1 μM): 105.2; TPST activity (0 μM = 100.0) ([1]; fatty acid 2.5 μM): 115.9; TPST activity (0 μM = 100.0) ([1]; fatty acid 5 μM): 109.6; TPST activity (0 μM = 100.0) ([1]; fatty acid 10 μM): 97.0; TPST activity (0 μM = 100.0) ([1]; fatty acid 25 μM): 117.8; TPST activity (0 μM = 100.0) ([1]; fatty acid 50 μM): 119.4; TPST activity (0 μM = 100.0) ([1]; fatty acid 100 μM): 103.3

**Q.** Which “Effect on TPST activity (in words)” value ([1]; Example 3, 25 μM, platelets) does the source give for `O=c1c(-c2ccc(O)cc2)coc2cc(O)ccc12` [Daidzein] here?
**A.** Its value is “stimulation of TPST activity”.

**Q.** And the “% Control TPST Activity” value [1, 4]?
**A.** The value was 279%.

**Q.** And the “TPST activity (0 μM = 100)” value ([1]; flavonoid 2.5 μM)?
**A.** Its value is 100.2.

**Q.** What about the “TPST activity (0 μM = 100)” value ([1]; flavonoid 5 μM) of the same compound?
**A.** Its value is 107.5.

**Q.** And the “TPST activity (0 μM = 100)” value ([1]; flavonoid 10 μM)?
**A.** Its value is 181.1.

**Q.** And the “TPST activity (0 μM = 100)” value ([1]; flavonoid 25 μM)?
**A.** Its value is 343.2.

**Q.** What about the “TPST activity (0 μM = 100)” value ([1]; flavonoid 50 μM) of the same compound?
**A.** The value was 303.1.

**Q.** For `CCO` [Ethanol], which “Effect on TPST activity (in words)” value [1, 6] is on record?
**A.** The value was “stimulation of activity”.

**Q.** And the “% Control TPST Activity” value ([1]; Table 2, 0.4%, normal human platelets)?
**A.** Its value is 177%.

**Q.** And the “TPST enzyme activity versus normal individuals” value (TPST [2])?
**A.** The value was “two- to three-fold higher”.

**Q.** What about the “Increase of TPST level” value (TPST [3]) of the same compound?
**A.** The value was “over three-fold”.
